Measurements: patent EP0198508A1, “L-phosphoserine salts, a process for the preparation thereof and pharmaceutical compositions containing them” (LABORATORI PROPHIN S.p.A., priority 1985, dated 1986)
Where a name gives a salt, the structure may show the parent alone. Marks after values point to notes of the source that are not given here.

Tests used:
Wistar rats [1] = test: Shuttle box test: acquirement of conditioned avoidance responses (CARs); assay type: in vivo; settings: for CARs: mean + ES; for effect on number of conditioned responses and percentage of learners (in words): young and elderly rats, PR 156 tested only on young rats
Method: (§1) Male young and elderly Wistar rats, weighing respectively […] and 580 g, were used.
(§2) The test compounds, dissolved in physiological saline, were administered orally to young and elderly animals, at doses of 5, lO and 20 mg/kg. Phosphoserine dissolved in physiological saline was administered at equimolecular doses (1.8, 3.6 and 7.2 mg/kg). The control animals were administered with the sole vehicle. The administrations were carried out once a day during 20 days, the last administration being effected 1 hour before the tests.
The following behavioral tests were carried out: • 1) Shuttle box test: to evaluate the acquirement of conditioned avoidance responses (CARs).

Wistar rats [2] = test: Dark box test: effect on memory capability; assay type: in vivo; settings: for LATENCY (seconds): averages; for effect on acquirement of avoidance responses (in words): summary of Table 2, young and elderly rats
Method: as §1, §2
2. Dark box test: to further evaluate the effect on memory capability of the animals.

elderly rats = test: Despair test: antidepressant activity; assay type: in vivo, Wistar rats; settings: for DURATION OF STILLNESS: Elderly rats, mean + SEM; for effect on stillness (in words): summary in text of Table 3, elderly rats
Method: as §1, §2
3. Despair test: to estimate the antidepressant activity on the elderly rats.

[3] = Young rats, 5 mg/kg orally once a day during 20 days, 5 mg/kg
[4] = Young rats, 10 mg/kg orally once a day during 20 days, 10 mg/kg
[5] = Elderly rats, 5 mg/kg orally once a day during 20 days
[6] = Elderly rats, 10 mg/kg orally once a day during 20 days
[7] = Elderly rats, 20 mg/kg orally once a day during 20 days
[8] = Young rats, 20 mg/kg orally once a day during 20 days
[9] = Elderly rats, 1.8 mg/kg orally once a day during 20 days
[10] = Elderly rats, 3.6 mg/kg orally once a day during 20 days
[11] = Elderly rats, 7.2 mg/kg orally once a day during 20 days
[12] = Young rats, 1.8 mg/kg orally once a day during 20 days
[13] = Young rats, 3.6 mg/kg orally once a day during 20 days
[14] = Young rats, 7.2 mg/kg orally once a day during 20 days

`N[C@@H](COP(=O)(O)O)C(=O)O` [PR 156, L-Phosphoserine salt with L-Arginine 1:2] was tested, and the “LEARNERS (%)” value (Wistar rats [1]; [3]) was 100.0%, the CARs (Wistar rats [1]; [3]) was 23.4 + 1.9** and the “LEARNERS (%)” value (Wistar rats [1]; [4]) was 100.0%. The CARs (Wistar rats [1]; [4]) was 24.0 + 1.8** and the “effect on number of conditioned responses and percentage of learners (in words)” value (Wistar rats [1]) was “proved also to be effective”.
With `N[C@@H](COP(=O)(O)O)C(=O)O` [PR 157, L-Phosphoserine salt with L-Arginine and L-Lysine] the “LEARNERS (%)” value (Wistar rats [1]; [5]) was 25.0%, the CARs (Wistar rats [1]; [5]) was 7.9 + 0.3* and the “LEARNERS (%)” value (Wistar rats [1]; [6]) was 50.0** %. For the same compound, the CARs (Wistar rats [1]; [6]) was 11.5 + 0.3*, the “LEARNERS (%)” value (Wistar rats [1]; [7]) was 50.0** % and the CARs (Wistar rats [1]; [7]) was 18.6 + 0.4*. For the same compound, the “LEARNERS (%)” value (Wistar rats [1]; [3]) was 50.0%, the CARs (Wistar rats [1]; [3]) was 19.4 + 0.4* and the “LEARNERS (%)” value (Wistar rats [1]; [4]) was 75.0** %. The CARs (Wistar rats [1]; [4]) was 22.2 + 1.4*, the “LEARNERS (%)” value (Wistar rats [1]; [8]) was 100.0** % and the CARs (Wistar rats [1]; [8]) was 24.4 + 1.4*. For the same compound, the “effect on number of conditioned responses and percentage of learners (in words)” value (Wistar rats [1]) was “caused an increase in the number of conditioned responses as well as in the percentage of learners, both in young and elderly animals”, the “LATENCY (seconds)” value (Wistar rats [2]; [5]) was “(12) 46.0* seconds” and the “LATENCY (seconds)” value (Wistar rats [2]; [6]) was “(12) 79.4* seconds”. The “LATENCY (seconds)” value (Wistar rats [2]; [7]) was “(12) 82.0* seconds”, the “LATENCY (seconds)” value (Wistar rats [2]; Young rats, 5 mg/kg orally once a day during 20 days) was “(12) 112.3* seconds” and the “LATENCY (seconds)” value (Wistar rats [2]; Young rats, 10 mg/kg orally once a day during 20 days) was “(12) 161.5* seconds”. The “LATENCY (seconds)” value (Wistar rats [2]; [8]) was “(12) 265.1* seconds”, the “effect on acquirement of avoidance responses (in words)” value (Wistar rats [2]) was “caused a dose-related improvement in the acquirement of avoidance responses both in young and elderly animals” and the “DURATION OF STILLNESS” value (elderly rats; 5 mg/kg orally once a day during 20 days) was 280.2 + 20.3*. For the same compound, the “DURATION OF STILLNESS” value (elderly rats; 10 mg/kg orally once a day during 20 days) was 263.1 + 33.4*, the “DURATION OF STILLNESS” value (elderly rats; 20 mg/kg orally once a day during 20 days) was 236.7 + 28.9* and the “effect on stillness (in words)” value (elderly rats) was “showed a dose-related reduction in the stillness of the elderly rats”.
`N[C@@H](COP(=O)(O)O)C(=O)O` [Phosphoserine] was tested, and the “LEARNERS (%)” value (Wistar rats [1]; [9]) was 25.0%, the CARs (Wistar rats [1]; [9]) was 5.9 + 0.4* and the “LEARNERS (%)” value (Wistar rats [1]; [10]) was 37.5* %. The CARs (Wistar rats [1]; [10]) was 6.2 + 0.5*, the “LEARNERS (%)” value (Wistar rats [1]; [11]) was 37.5** % and the CARs (Wistar rats [1]; [11]) was 9.2 + 0.6*. The “LEARNERS (%)” value (Wistar rats [1]; [12]) was 50.0%, the CARs (Wistar rats [1]; [12]) was 16.1 + 0.5 and the “LEARNERS (%)” value (Wistar rats [1]; [13]) was 50.0%. For the same compound, the CARs (Wistar rats [1]; [13]) was 17.6 + 0.5, the “LEARNERS (%)” value (Wistar rats [1]; [14]) was 75.0% and the CARs (Wistar rats [1]; [14]) was 17.2 + 0.6. For the same compound, the “effect on number of conditioned responses and percentage of learners (in words)” value (Wistar rats [1]) was “caused similar effects on the elderly animals only”, the “LATENCY (seconds)” value (Wistar rats [2]; [9]) was “(12) 34.8 seconds” and the “LATENCY (seconds)” value (Wistar rats [2]; [10]) was “(12) 50.7* seconds”. For the same compound, the “LATENCY (seconds)” value (Wistar rats [2]; [11]) was “(12) 65.0* seconds”, the “LATENCY (seconds)” value (Wistar rats [2]; [12]) was “(12) 97.5* seconds” and the “LATENCY (seconds)” value (Wistar rats [2]; [13]) was “(12) 110.2* seconds”. The “LATENCY (seconds)” value (Wistar rats [2]; [14]) was “(12) 186.0* seconds”, the “effect on acquirement of avoidance responses (in words)” value (Wistar rats [2]) was “proved to be effective only on the elderly animals” and the “DURATION OF STILLNESS” value (elderly rats; 1.8 mg/kg orally once a day during 20 days) was 301.0 + 31.4*. For the same compound, the “DURATION OF STILLNESS” value (elderly rats; 3.6 mg/kg orally once a day during 20 days) was 291.7 + 32.7*, the “DURATION OF STILLNESS” value (elderly rats; 7.2 mg/kg orally once a day during 20 days) was 265.8 + 24.7* and the “effect on stillness (in words)” value (elderly rats) was “showed a dose-related reduction in the stillness of the elderly rats”.
